Reference: the NIST ThermoML archive (doi:10.1021/acs.jced.6b00542)

Test: xn = mol fraction of the nth substance listed
Conditions: for speed of sound: 100 kPa, Frequency=3 MHz, Sing-around technique in a fixed-path interferometer; for speed of sound / viscosity / mass density: Liquid; for viscosity / mass density: 102 kPa; for viscosity: Concentric cylinders viscometry; for mass density: Vibrating tube method; for surface tension liquid-gas: 294.5 K, Pendant drop shape

CCCCc1ccccc1 [butylbenzene] + CCCCCCCCCCCCCCCC
Conditions	mass density [kg/m3]	speed of sound [m/s]	viscosity [mPa·s]
293.15 K, x1 = 0.1586	780.89	1353.2	2.92
293.15 K, x1 = 0.2971	788.51	1350.1	2.5
293.15 K, x1 = 0.4067	795.49	1347.8	2.21
293.15 K, x1 = 0.5293	804.56	1346	1.91
293.15 K, x1 = 0.6278	813.07	1345	1.69
293.15 K, x1 = 0.7158	821.75	1345.1	1.52
293.15 K, x1 = 0.7981	831.1	1346.3	1.36
293.15 K, x1 = 0.8709	840.48	1347.8	1.23
293.15 K, x1 = 0.938	850.32	1350.4	1.12
293.15 K, x1 = 1	860.51	1353.7	1.05
303.15 K, x1 = 0.1586	773.89	1316.1	2.35
303.15 K, x1 = 0.2971	781.43	1313	2.05
303.15 K, x1 = 0.4067	788.33	1310.7	1.83
303.15 K, x1 = 0.5293	797.29	1308.8	1.6
303.15 K, x1 = 0.6278	805.7	1307.7	1.43
303.15 K, x1 = 0.7158	814.27	1307.6	1.29
303.15 K, x1 = 0.7981	823.49	1308.5	1.17
303.15 K, x1 = 0.8709	832.73	1309.7	1.06
303.15 K, x1 = 0.938	842.44	1312	0.976
303.15 K, x1 = 1	852.49	1314.9	0.91
313.15 K, x1 = 0.1586	766.88	1279.5	1.94
313.15 K, x1 = 0.2971	774.34	1276.4	1.71
313.15 K, x1 = 0.4067	781.16	1274.1	1.54
313.15 K, x1 = 0.5293	790	1272.1	1.36
313.15 K, x1 = 0.6278	798.3	1270.8	1.23
313.15 K, x1 = 0.7158	806.75	1270.5	1.11
313.15 K, x1 = 0.7981	815.84	1271.1	1.01
313.15 K, x1 = 0.8709	824.96	1272.1	0.932
313.15 K, x1 = 0.938	834.53	1274	0.859
313.15 K, x1 = 1	844.43	1276.6	0.801
323.15 K, x1 = 0.1586	–	1243.6	1.62
323.15 K, x1 = 0.2971	–	1240.4	1.44
323.15 K, x1 = 0.4067	–	1238	1.31
323.15 K, x1 = 0.5293	–	1235.9	1.17
323.15 K, x1 = 0.6278	–	1234.4	1.06
323.15 K, x1 = 0.7158	–	1233.9	0.972
323.15 K, x1 = 0.7981	–	1234.3	0.891
323.15 K, x1 = 0.8709	–	1235	0.822
323.15 K, x1 = 0.938	–	1236.6	0.761
323.15 K, x1 = 1	–	1238.7	0.713

Conditions	surface tension liquid-gas [mN/m]
x1 = 0.1586	27.5
x1 = 0.2971	27.3
x1 = 0.4067	27.6
x1 = 0.5293	27.8
x1 = 0.6278	27.9
x1 = 0.7158	28
x1 = 0.7981	28.2
x1 = 0.8709	28.4
x1 = 0.938	28.7
